Data taken from paper PMC12299981, “Human Metabolism of Sirolimus Revisited” (Metabolites, 2025).

Columns and labels:
[1] = tested on: pooled human liver microsomes (HLM); experiment: Formation kinetics of SRL metabolites by pooled human liver microsomes; assay type: in vitro ADME; conditions: for Vmax: apparent Vmax of formation of the metabolite from sirolimus; for Vmax / Km: Michaelis–Menten fit; for Km: apparent Km of formation of the metabolite from sirolimus; for CLint: apparent intrinsic clearance of formation of the metabolite, CLint = Vmax/Km
Description: (§1) Apparent enzyme kinetic parameters for the major SRL metabolites were assessed. […] Before the addition of the SRL, the NADPH-generating system was preincubated at 37 °C (type C24 incubator shaker, New Brunswick Scientific, Edison, NJ, USA) for 5 min. […] The final volume of the reaction solution was 500 μL, and the reaction was quenched by the addition of a 1:1 volume of ice-cold acetonitrile. Following protein precipitation, samples were briefly vortexed and subsequently centrifuged at 4 °C and 13,000× g for 10 min. The supernatant was transferred to a 2-mL HPLC glass vial and analyzed using high-performance liquid chromatography/tandem mass spectrometry (LC-MS/MS). Representative control incubations without HLMs, without drug, or without the NADPH-generating system (all in quadruplicate) were carried out under the same conditions with every SRL HLM metabolism batch.
(§2) For data analysis, we utilized Sciex Analyst Software (version TF1.7.1) to process and interpret mass spectrometry data. […] Kinetics data was fitted using the GraphPad Prism Enzyme Kinetics Module (Version 10.0.2, for Windows, GraphPad Software, Boston, MA, USA).
(§3) The formation rates of hydroxy SRL and desmethyl SRL were analyzed and fitted using Michaelis–Menten kinetics. This approach enables the determination of kinetic parameters such as Vmax (maximum reaction velocity) and Km (substrate concentration at half-maximal velocity), which provide insight into the enzymatic activity and substrate affinity for these metabolites. […] To compare the formation of the various metabolites and to predict the human hepatic clearance, the apparent intrinsic clearances of the formation of the metabolites (CLint = Vmax/Km) were calculated.

[2] = set-up: method as in doi:10.1016/S0955-470X(10)80014-X, PMID 11165091; conditions: stability is increased in a mildly acidic environment; cited from earlier work
[3] = Formation kinetics of SRL metabolites by pooled human liver microsomes; assay type: in vitro ADME; conditions: human, pooled human liver microsomes, pH 7.4; sum over metabolite formation, pooled HLM, CLint = Vmax/Km; read-out: total Clint derived from the formation of hydroxylated and demethylated SRL metabolites
Description: as §1, §2, §3

[4] = tested on: phytohemagglutinin-stimulated human lymphocyte proliferation; set-up: method as in PMID 1352208; conditions: percent of the immunosuppressive activity of SRL; cited from earlier work

Km ([1]; n = 4) | CLint [1] | Compound | Vmax ([1]; n = 4) | also measured
7.21 µM | 0.6 µL/mg protein/min | CO[C@H]1C[C@@H]2CC(O)[C@@H](C)[C@@](O)(O2)C(=O)C(=O)N2CCCC[C@H]2C(=O)O[C@H]([C@H](C)C[C@@H]2CC[C@@H](O)[C@H](OC)C2)CC(=O)[C@H](C)/C=C(\C)[C@@H](O)[C@@H](OC)C(=O)[C@H](C)C[C@H](C)/C=C/C=C/C=C/1C (stereo partly drawn) [12-Hydroxy SRL, 12-Hydroxy sirolimus] | 4.264 pmol/mg protein/min | Vmax ([1]; n = 4, listed as 12-hydroxy SRL): 4.3 pmol/mg protein/min
24.4 µM | 0.08 µL/mg protein/min | CO[C@@H]1C[C@H](C[C@@H](C)[C@@H]2CC(=O)[C@H](C)/C=C(\C)[C@@H](O)[C@@H](OC)C(=O)[C@H](C)C[C@H](C)/C=C/C=C/C=C(\C)[C@@H](O)C[C@@H]3CC[C@@H](C)[C@@](O)(O3)C(=O)C(=O)N3CCCC[C@H]3C(=O)O2)CC[C@H]1O [16-O-desmethyl SRL, 16-O-Desmethyl sirolimus] | 1.828 pmol/mg protein/min | 
15 µM | 0.65 µL/mg protein/min | COC1CC2CCC(C)C(O)(O2)C(=O)C(=O)N2CCCCC2C(=O)OC(C(C)CC2CCC(O)C(O)C2)CC(=O)C(C)C=C(C)C(O)C(OC)C(=O)C(C)CC(C)C=CC=CC=C1C (stereo not drawn) [39-O-desmethyl SRL, 39-O-Desmethyl sirolimus] | 9.6 pmol/mg protein/min | Vmax ([1]; n = 4, listed as 39-O-desmthyl SRL): 9.647 pmol/mg protein/min; immunosuppressive activity relative to SRL [4]: 10%

Continued, compound first:

Compound | Km ([1]; n = 4) | CLint [1] | Vmax ([1]; n = 4) | also measured
27-O-Desmethyl sirolimus [27-O-desmethyl SRL] |  |  | 0.552 pmol/mg protein/min | 
CO[C@H]1C[C@@H]2CC[C@@H](C)[C@@](O)(O2)C(=O)C(=O)N2CCCC[C@H]2C(=O)O[C@H]([C@H](C)C[C@@H]2CC[C@@H](O)[C@H](OC)C2)CC(=O)[C@H](C)/C=C(\C)[C@@H](O)[C@@H](OC)C(=O)[C@H](C)C[C@H](C)/C=C/C=C/C=C/1C [SRL, Sirolimus] |  |  |  | stability in aqueous solutions [2]: low stability in aqueous solutions; microsomal CLint [3]: 2.35 µL/min/mg
11-Hydroxy sirolimus [11-Hydroxy SRL] |  |  | 6.203 pmol/mg protein/min | Vmax ([1]; n = 4, listed as 11-hydroxy SRL): 6.2 pmol/mg protein/min
23/24-Hydroxy sirolimus [23/24-Hydroxy SRL] |  |  | 2.221 pmol/mg protein/min | 
